Data published in publication PMC4965013, “Open Source Drug Discovery with the Malaria Box Compound Collection for Neglected Diseases and Beyond” (PLoS Pathogens, 2016).

Legend:
[1] = test system: P. falciparum 3D7 trophozoites; assay: Metabolomic fingerprint profiling LC-MS; assay type: cell-based, Plasmodium falciparum; design: UDP-D-glucose / ADP-D-glucose: unit not given here; settings: for Acetyllysine / N-acetyl-L-ornithine / N-carbamoyl-L-aspartate / NADPH / dAMP / dCMP / dTDP / dTMP / dTTP / dihydroorotate / orotate / DLH / DLS/SDL/SID / PD / PEE / PVNF / 3-phosphoglycerate / ADP-D-glucose / ATP / CDP / D-sedoheptulose-1/7-phosphate / FAD / GMP / NAD+ / NADP+ / Octoluse Bisphosphate / Pyroglutamic acid / UDP-D-glucose / UDP-D-glucuronate / UDP-N-acetyl-glucosamine / UDP / UMP / UTP / a-ketoglutarate / citrate/isocitrate / cytidine / dATP / dGMP/AMP / fumarate / glucose-1/6-phosphate / glycerate / guanine / guanosine / hypoxanthine / indole / inosine / nicotinate / ornithine / phosphoenolpyruvate / pyruvate / ribose-phosphate / sarcosine/alanine / sn-glycerol-3-phosphate / succinate/methylmalonic acid / uridine / xanthosine: S2 Table Metabolomics; for Acetyllysine: metabolite Acetyllysine; for N-acetyl-L-ornithine: metabolite N-acetyl-L-ornithine; for N-carbamoyl-L-aspartate: metabolite N-carbamoyl-L-aspartate; for NADPH: metabolite NADPH; for dAMP: metabolite dAMP; for dCMP: metabolite dCMP; for dTDP: metabolite dTDP; for dTMP: metabolite dTMP; for dTTP: metabolite dTTP; for dihydroorotate: metabolite dihydroorotate; for orotate: metabolite orotate; for DLH: peptide DLH; for DLS/SDL/SID: peptide DLS/SDL/SID; for PD: peptide PD; for PEE: peptide PEE; for PVNF: peptide PVNF; for 3-phosphoglycerate: metabolite 3-phosphoglycerate; for ADP-D-glucose: metabolite ADP-D-glucose; for ATP: metabolite ATP; for CDP: metabolite CDP; for CDP / D-sedoheptulose-1/7-phosphate / GMP / Octoluse Bisphosphate / UDP / UMP / UTP / citrate/isocitrate / dGMP/AMP / fumarate / glucose-1/6-phosphate / glycerate / guanine / guanosine / inosine / pyruvate / sarcosine/alanine / succinate/methylmalonic acid / uridine / xanthosine: change in metabolite level after compound treatment; for D-sedoheptulose-1/7-phosphate: metabolite D-sedoheptulose-1/7-phosphate; for FAD: metabolite FAD; for GMP: metabolite GMP; for NAD+: metabolite NAD+; for NADP+: metabolite NADP+; for Octoluse Bisphosphate: metabolite Octoluse Bisphosphate; for Pyroglutamic acid: metabolite Pyroglutamic acid; for UDP-D-glucose: metabolite UDP-D-glucose; for UDP-D-glucuronate: metabolite UDP-D-glucuronate; for UDP-N-acetyl-glucosamine: metabolite UDP-N-acetyl-glucosamine; for UDP: metabolite UDP; for UMP: metabolite UMP; for UTP: metabolite UTP; for a-ketoglutarate: metabolite a-ketoglutarate; for citrate/isocitrate: metabolite citrate/isocitrate; for cytidine: metabolite cytidine; for dATP: metabolite dATP; for dGMP/AMP: metabolite dGMP/AMP; for fumarate: metabolite fumarate; for glucose-1/6-phosphate: metabolite glucose-1/6-phosphate; for glycerate: metabolite glycerate; for guanine: metabolite guanine; for guanosine: metabolite guanosine; for hypoxanthine: metabolite hypoxanthine; for indole: metabolite indole; for inosine: metabolite inosine; for 2_3-Diphosphoglyceric acid / 4-phosphopantothenate / 6-phospho-D-gluconate / FMN / IMP / Pyrophosphate / Sedoheptoluse bisphosphate / cyclic-AMP / glutathione disulfide / lactate / myo-inositol: metabolite level change after treatment; for nicotinate: metabolite nicotinate; for ornithine: metabolite ornithine; for phosphoenolpyruvate: metabolite phosphoenolpyruvate; for pyruvate: metabolite pyruvate; for ribose-phosphate: metabolite ribose-phosphate; for sarcosine/alanine: metabolite sarcosine/alanine; for sn-glycerol-3-phosphate: metabolite sn-glycerol-3-phosphate; for succinate/methylmalonic acid: metabolite succinate/methylmalonic acid; for uridine: metabolite uridine; for xanthosine: metabolite xanthosine
[2] = test system: P. falciparum; assay: EC50 listed in S2 Table Metabolomics (used to set the concentration tested); assay type: cell-based; settings: Plasmodium falciparum; EC50 used for Factor_XEC50 in metabolomics; read-out: EC50_nM

## COc1ccc2c(c1)OC(O)(C(F)(F)C(F)(F)F)CC2=O (stereo not shown) [MMV007839]
[1]
  Acetyllysine: -0.1495
  N-acetyl-L-ornithine: -0.3633
  N-carbamoyl-L-aspartate: -1.795
  NADPH: -0.4001
  dAMP: -1.537
  dCMP: -0.8612
  dTDP: -1.865
  dTMP: -1.855
  dTTP: -0.1915
  dihydroorotate: -1.4167
  orotate: -2.224
  DLH: -0.6186
  DLS/SDL/SID: -1.11
  PD: 0.5838
  PEE: -0.1635
  PVNF: -0.3342
  3-phosphoglycerate: 0.9102
  ADP-D-glucose: -0.2
  ATP: -0.07659
  CDP: -1.957
  D-sedoheptulose-1/7-phosphate: -0.1553
  FAD: -0.4884
  GMP: -0.7332
  NAD+: -0.1711
  NADP+: -0.2719
  Octoluse Bisphosphate: 0.7306
  Pyroglutamic acid: 0.1304
  UDP-D-glucose: -0.2042
  UDP-D-glucuronate: -0.2026
  UDP-N-acetyl-glucosamine: -0.2915
  UDP: -2.077
  UMP: -0.8849
  UTP: -0.5295
  a-ketoglutarate: -0.1816
  citrate/isocitrate: 0.3799
  cytidine: 0.004906
  dATP: -0.1041
  dGMP/AMP: -1.779
  fumarate: -0.2064
  glucose-1/6-phosphate: -0.5084
  glycerate: 3.453
  guanine: -0.7539
  guanosine: -0.466
  hypoxanthine: 0.3062
  indole: 0.0845
  inosine: 0.6443
  2_3-Diphosphoglyceric acid: 0.2433
  4-phosphopantothenate: -0.5485
  6-phospho-D-gluconate: 0.05032
  FMN: -0.6664
  IMP: -0.6059
  Pyrophosphate: 0.1105
  Sedoheptoluse bisphosphate: 0.5834
  cyclic-AMP: -1.0489
  glutathione disulfide: -0.5477
  lactate: 0.3101
  myo-inositol: 0.232
  nicotinate: 0.1131
  ornithine: 0.4692
  phosphoenolpyruvate: 1.103
  pyruvate: 2.0227
  ribose-phosphate: 0.6152
  sarcosine/alanine: 0.4418
  sn-glycerol-3-phosphate: 0.2795
  succinate/methylmalonic acid: -0.36
  uridine: -0.244
  xanthosine: -0.1676
[2]
  EC50: 283 nM

## COc1ccccc1CNC(=O)CCn1c(=O)[nH]c2ccsc2c1=O [MMV019066]
[1]
  Acetyllysine: 0.07735
  N-acetyl-L-ornithine: -0.0529
  N-carbamoyl-L-aspartate: 0.05336
  NADPH: -0.3877
  dAMP: -0.3418
  dCMP: -0.4851
  dTDP: 0.1634
  dTMP: 0.1236
  dTTP: -0.2106
  dihydroorotate: 0.243
  orotate: -0.2
  DLH: -0.2144
  DLS/SDL/SID: -0.3411
  PD: 0.09576
  PEE: 0.0022
  PVNF: -0.1895
  3-phosphoglycerate: -0.09413
  ADP-D-glucose: -0.05903
  ATP: -0.2412
  CDP: 0.1136
  D-sedoheptulose-1/7-phosphate: 0.1088
  FAD: 0.05372
  GMP: 0.1058
  NAD+: 0.8616
  NADP+: -0.0134
  Octoluse Bisphosphate: -0.2214
  Pyroglutamic acid: -0.1934
  UDP-D-glucose: 0.05907
  UDP-D-glucuronate: -0.137
  UDP-N-acetyl-glucosamine: 0.07368
  UDP: 0.06631
  UMP: 0.4511
  UTP: -0.2134
  a-ketoglutarate: -0.0676
  citrate/isocitrate: -0.2257
  cytidine: 0.1038
  dATP: -0.07834
  dGMP/AMP: 0.0855
  fumarate: 1.364
  glucose-1/6-phosphate: 0.5644
  glycerate: -0.201
  guanine: 0.002341
  guanosine: -0.12
  hypoxanthine: -0.07458
  indole: -0.09687
  inosine: -0.05497
  2_3-Diphosphoglyceric acid: -0.2512
  4-phosphopantothenate: -0.02128
  6-phospho-D-gluconate: -0.003238
  FMN: -0.1662
  IMP: 0.2187
  Pyrophosphate: -0.2235
  Sedoheptoluse bisphosphate: -0.07937
  cyclic-AMP: -0.08199
  glutathione disulfide: 0.08045
  lactate: -0.3675
  myo-inositol: -0.05445
  nicotinate: -0.03534
  ornithine: 0.2934
  phosphoenolpyruvate: -0.1195
  pyruvate: -0.02123
  ribose-phosphate: -0.1454
  sarcosine/alanine: 0.007595
  sn-glycerol-3-phosphate: -0.1485
  succinate/methylmalonic acid: 0.2071
  uridine: 0.04529
  xanthosine: -0.08771
[2]
  EC50: 140 nM
